Data set [1] has as its target T1, human VPAC2 (Homo sapiens, UniProt P41587).
T1 construct: expressed in transfected cells
T1 sequence (P41587 24-438): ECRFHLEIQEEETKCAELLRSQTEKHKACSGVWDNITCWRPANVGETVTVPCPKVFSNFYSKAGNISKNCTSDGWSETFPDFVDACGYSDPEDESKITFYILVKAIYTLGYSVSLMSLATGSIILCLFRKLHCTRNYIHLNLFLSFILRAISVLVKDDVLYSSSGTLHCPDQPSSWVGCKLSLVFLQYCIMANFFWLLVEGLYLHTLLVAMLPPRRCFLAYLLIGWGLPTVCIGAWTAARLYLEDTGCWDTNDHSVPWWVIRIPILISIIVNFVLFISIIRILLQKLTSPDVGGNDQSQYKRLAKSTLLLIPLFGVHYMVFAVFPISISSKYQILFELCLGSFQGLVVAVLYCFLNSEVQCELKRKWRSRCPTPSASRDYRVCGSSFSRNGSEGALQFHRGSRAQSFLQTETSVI
The experiment in a line: DiscoveRx cAMP in vitro potency, CHO-S cell line stably expressing human VPAC2 receptor. The format is cell-based. The settings on record: cAMP generation; mean of two independent runs. On the procedure:
(§1) Also, the cells are washed twice. The cells are incubated in assay buffer plus IBMX for 15 minutes at room temperature. […] The stimuli are present for 30 minutes. Then, the assay buffer is gently removed. […] At day 3, the assay described above for the VPAC2 receptor cell line is performed.

Data set [2] has as its target T2, human PAC1 (Homo sapiens, UniProt P41586).
T2 sequence (P41586 21-468): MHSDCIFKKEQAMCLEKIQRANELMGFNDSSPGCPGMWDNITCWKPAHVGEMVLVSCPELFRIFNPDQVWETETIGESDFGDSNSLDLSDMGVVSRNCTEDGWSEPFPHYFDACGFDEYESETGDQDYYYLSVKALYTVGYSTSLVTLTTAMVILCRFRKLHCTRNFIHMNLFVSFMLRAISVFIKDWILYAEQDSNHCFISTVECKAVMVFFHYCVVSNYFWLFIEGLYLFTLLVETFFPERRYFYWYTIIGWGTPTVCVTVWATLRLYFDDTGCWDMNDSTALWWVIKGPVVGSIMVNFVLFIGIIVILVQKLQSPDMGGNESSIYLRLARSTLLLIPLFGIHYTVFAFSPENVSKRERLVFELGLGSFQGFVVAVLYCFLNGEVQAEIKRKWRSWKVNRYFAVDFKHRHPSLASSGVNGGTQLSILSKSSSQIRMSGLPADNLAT
As to the kind of experiment: DiscoveRx cAMP in vitro potency, CHO-PO cells transiently transfected with human PAC1 receptor. The data set is classed as cell-based. Also on record: expressed in transfected cells; host or cells: CHO-PO, transient (Lipofectamine). The settings on record: cAMP generation; mean of two independent runs; read-out: Human PAC1 Receptor: DiscoveRx EC50. On the procedure:
as §1

Data set [3] deals with T3, DPP-IV (Sus scrofa, UniProt P22411).
T3 construct: purchased Sigma
As to the kind of experiment: DPP-IV HPLC assay: in vitro incubation with purified dipeptidyl-peptidase IV. The format is in vitro ADME, Porcine. On the procedure: Part 1: Formulation of Selective VPAC2 Receptor Peptide Agonists: […]
Approximately 2 mg of lyophilized peptide is weighed and dissolved in approximately 1.6 mL de-ionized water. […] After incubation at room temperature for 30 minutes, 1/10th of the original volume 10×PBS is added. The pH is adjusted to between pH 7.2 and 7.6. The peptide solution is filtered through a 0.22 μm Millex-GV syringe filter (Millipore, Bedford Mass., USA). The peptide concentration is determined through absorption at 280 nm. The peptide concentration is then adjusted to 100 μM. The peptides are frozen at −20° C. for further use.
Part 2: In Vitro Incubation of Selective VPAC2 Receptor Peptide Agonists with Purified Dipeptidyl-Peptidase IV (DPP-IV):
The stability of selective VPAC2 receptor peptide agonists against proteolysis by DPP-IV is determined using 100 μL of a 100 μM peptide solution in 1×PBS. A 10 μL solution is removed and quenched with 40 μL of 0.1% trifluoroacetic acid (TFA)/20% acetonitrile (ACN). This solution (20 μL) is analyzed by reversed-phase HPLC. The reversed-phase analysis consists of a Zorbax 300SB-C8 column (3.5 micron, 4.6×50 mm, Alltech Associates, Inc., Deerfield Ill., USA) running a 15-40% B gradient over 15 minutes at 60° C. where A-buffer is 0.1% (v/v) TFA in water and B-buffer is 0.085% (v/v) TFA in ACN. The peak area is integrated. This peak area serves as an internal control as 100% intact peptide.
A 10 μL aliquot of a 1.12 mU/μL solution of DPP-IV (Sigma, St. Louis, La., USA) is added to 90 μL of a 100 μM solution of peptide, resulting in a substrate concentration of 90 μM peptide. The reaction mixture is then stored at 37° C. At various time-points, 10 μL of solution is removed, quenched with 40 μL 0.1% TFA/20% ACN, and analyzed by reversed-phase HPLC as described above. The remaining full length peptide concentration (nM) at each timepoint, except time=0, is calculated using following formula: [formula]
For the time=0 timepoint, the concentration (nM) is calculated using the following formula: [formula]

For data set [4], the target named is T1, human VPAC2. As to the kind of experiment: Filter binding assay, membranes of stable VPAC2 cell line, 125I-labeled VIP tracer (Table 2). Conditions: read-out: Human VPAC2 Receptor Binding. In outline:
(§2)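 Radioligand displacement was measured with 2.5 μg membrane protein per well and roughly 40000 cpm of iodinated tracer. After a 1-hour incubation, bound and free label were separated on BSA-blocked glass-fibre filters and quantified by scintillation.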

For data set [5], the target named is T4, human VPAC1 (Homo sapiens, UniProt P32241).
T4 sequence (P32241 31-457): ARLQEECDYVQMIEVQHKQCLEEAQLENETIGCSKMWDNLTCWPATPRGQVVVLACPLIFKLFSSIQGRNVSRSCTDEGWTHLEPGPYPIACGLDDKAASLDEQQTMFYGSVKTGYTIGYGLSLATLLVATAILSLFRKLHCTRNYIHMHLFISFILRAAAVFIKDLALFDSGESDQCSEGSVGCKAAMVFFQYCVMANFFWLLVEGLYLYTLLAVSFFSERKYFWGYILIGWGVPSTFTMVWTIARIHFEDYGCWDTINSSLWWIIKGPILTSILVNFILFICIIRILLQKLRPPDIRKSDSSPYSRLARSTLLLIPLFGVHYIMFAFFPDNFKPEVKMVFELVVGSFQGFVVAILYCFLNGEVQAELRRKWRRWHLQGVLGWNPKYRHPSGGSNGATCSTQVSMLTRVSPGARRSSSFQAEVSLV
As to the kind of experiment: Filter binding assay, membranes of cells transiently transfected with human VPAC1, 125I-labeled VIP tracer (Table 2). Also on record: expressed in transfected cells. The settings on record: read-out: Human VPAC1 Receptor Binding. A digest of the protocol: as §2

For data set [6], the target named is T4, human VPAC1. The experiment in a line: DiscoveRx cAMP in vitro potency, CHO-PO cells transiently transfected with human VPAC1 receptor. Conditions: cAMP generation; mean of two independent runs; read-out: Human VPAC1 Receptor: DiscoveRx EC50. Also on record: expressed in transfected cells; host or cells: CHO-PO, transient (Lipofectamine). The data set is classed as cell-based. On the procedure:
as §1

Where “and” joins values, the source holds several entries; their conditions need not be identical. Equal entries are not always repeated. Where no end group is shown, it is not given here. The star is where a group is joined. Hexanoyl = CCCCCC(=O)* Some results are limits rather than exact numbers.

T3 sequence (P22411 whole entry): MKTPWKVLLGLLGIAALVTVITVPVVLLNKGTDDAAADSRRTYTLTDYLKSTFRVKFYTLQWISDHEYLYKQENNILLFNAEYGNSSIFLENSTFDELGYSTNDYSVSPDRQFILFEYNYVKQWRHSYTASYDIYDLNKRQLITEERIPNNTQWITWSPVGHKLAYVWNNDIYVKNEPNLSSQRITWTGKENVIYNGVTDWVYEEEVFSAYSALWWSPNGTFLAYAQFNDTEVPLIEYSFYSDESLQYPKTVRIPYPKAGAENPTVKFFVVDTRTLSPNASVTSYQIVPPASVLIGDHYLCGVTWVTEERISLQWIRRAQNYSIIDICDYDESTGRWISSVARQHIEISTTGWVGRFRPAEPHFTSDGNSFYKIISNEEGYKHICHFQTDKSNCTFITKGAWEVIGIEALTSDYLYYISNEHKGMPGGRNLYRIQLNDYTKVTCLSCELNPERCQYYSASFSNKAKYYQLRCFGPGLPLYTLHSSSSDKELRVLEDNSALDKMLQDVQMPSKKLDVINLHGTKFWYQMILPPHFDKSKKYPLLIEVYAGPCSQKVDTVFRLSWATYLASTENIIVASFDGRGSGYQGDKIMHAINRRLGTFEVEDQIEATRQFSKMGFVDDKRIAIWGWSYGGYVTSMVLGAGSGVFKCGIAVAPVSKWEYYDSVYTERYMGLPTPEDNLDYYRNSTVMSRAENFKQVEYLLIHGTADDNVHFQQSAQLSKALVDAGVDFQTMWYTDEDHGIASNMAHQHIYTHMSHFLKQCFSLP

In general, EC50 refers to the midpoint of the concentration-response curve. For the substance “HSDATFTDNYTRLRKQVAAKKYLQSIKNKRYGGPSSGAPPPS [Agonist P62]”, the EC50 in data set [1] came out at 13.2 nM; in data set [2], 137 nM.
As for “MHSDAVFTDNYTRLRKQVAAKKYLQSIKNKRYGGPSSGAPPPS [VPAC2-P104]”, the “Concentration (nM) of Remaining Main Peak by RP-HPLC after Incubation of Peptide with Purified Porcine DPP-IV” value came out at 9.0 nM in data set [3] (Time = 0 hours at 37° C.), 7.8 nM in data set [3] (Time = 2 hours at 37° C.), 6.6 nM in data set [3] (Time = 6 hours at 37° C.) and 4.1 nM in data set [3] (Time = 24 hours at 37° C.).
With “HSDAVFTDNYTRLRKQVAAKKYLQSIKNKRF [Agonist P34]”, the values for the IC50 in data set [4] and in data set [5] were 0.92 nM and 79.2 nM, respectively. Moreover, the EC50 in data set [6] is 0.8 nM.
For “HSDAVFTDNYTRLRKQVAAKKYLQSIKNGRPSSGAPPPS [Agonist P92]”, the results for the IC50 in data set [4] and in data set [5] were 0.86 nM and 74.6 nM, respectively. In addition, the midpoint of the response in data set [1], the EC50, lay at 8.2 nM.
In the case of “Hexanoyl-HSDAVFTDNYTRLLAKLALQKYLQSIKNKRYGGPSSGAPPPS [VPAC2-P119]”, the “Concentration (nM) of Remaining Main Peak by RP-HPLC after Incubation of Peptide with Purified Porcine DPP-IV” value in data set [3] (Time = 0 hours at 37° C.) was found to be 9.0 nM; in data set [3] (Time = 2 hours at 37° C.), 8.0 nM; in data set [3] (Time = 6 hours at 37° C.) it was 6.6 nM; in data set [3] (Time = 24 hours at 37° C.), 4.2 nM.
As for “Hexanoyl-HSDAVFTDNYTRLRKQVAAKKYLQSIKNKRYGGPSSGAPPPS [VPAC2-P31]”, the “Concentration (nM) of Remaining Main Peak by RP-HPLC after Incubation of Peptide with Purified Porcine DPP-IV” value is 9.0 nM in data set [3] (Time = 0 hours at 37° C.); 8.0 nM and 7.0 nM and 6.7 nM in data set [3] (Time = 2 hours at 37° C.); 6.7 nM and 6.1 nM and 5.6 nM in data set [3] (Time = 6 hours at 37° C.); 2.2 nM and 2.6 nM and 3.9 nM in data set [3] (Time = 24 hours at 37° C.).
Turning to “Ac-HSDAVFTDNYTRLRKQVAAKKYLQSIKNKRYGGPSSGAPPPS [Agonist P33]”, the IC50 in data set [4] was 2.31 nM; in data set [5], 120 nM. Besides, the values for the EC50 in data set [1] and in data set [2] were 0.86 nM and 111 nM, respectively.
Turning to “H-HSDAVFTDNYTRAKAKVAAKKYLQSIKNKRYGGPSSGAPPPS [Agonist P94]”, the IC50 in data set [4] amounted to 71.5 nM; in data set [5] it was 271 nM. The same substance showed an EC50 in data set [1] of more than 1000 nM.
